Assay results: paper PMC8315922, “In Vitro Identification and In Vivo Confirmation of Inhibitors for Sweet Potato Chlorotic Stunt Virus RNA Silencing Suppressor, a Viral RNase III” (Journal of Virology, 2021)
pIC50, pKd: −log10 of the molar value. Where two headings read alike, the source gives them in different places.

How the values were obtained:
[1] = target: CSR3 (RNase III of SPCSV) (Sweet potato chlorotic stunt virus, UniProt Q8JJW8); assay: Kinetic-based FRET dose-response assay (IC50, DSS); type: biochemical; parameters: DSS / DSS Comm 1 / DSS FIMM1 / DSS FIMM 2: scale not given here; details: for DSS Comm 1 / DSS FIMM1 / DSS FIMM 2: drug sensitivity score; for DSS Comm 1: repeat Comm 1; for DSS FIMM1: repeat FIMM 1; for DSS FIMM 2: repeat FIMM 2; for IC50: 1.25 nM to 50 μM, unit inferred; for DSS / pIC50: kinetic-based HTS, Fig 5A summary
Procedure: A dose-response assay with six concentrations (1.25 nM to 50 μM) was carried out in three independent experiments, which included two tests with the 112 selected FIMM compounds (i.e., compounds prepared by the HTB-FIMM) and one test using the newly ordered commercial compounds (99 of the 112 compounds, i.e., compounds prepared by a second supplier). A dose-response curve was generated for each compound based on PI values as a function of the concentration.
The HTS assay was designed based on FRET using a 22-bp siRNA (forward sequence, […]; reverse sequence, […]) with a 2-nucleotide (nt) 3′ overhang labeled with the fluorescent dye 6-carboxyfluorescein (FAM) and a black hole quencher (BHQ1) on the sense strand (Metabion, Munich, Germany). Screening was initially carried out at one concentration (10 μM) in a 20-μl reaction buffer. […] All reaction mixtures contained 50 nM CSR3 and 375 nM labeled siRNA in 384-well black flat-bottom microplates (Corning, NY, USA) and were prepared using a BioTek MultiFlo FX dispenser with single-channel random access dispenser cassettes (BioTek, Winooski, VT, USA). The plates were read with a PHERAstar FS reader (BMG Labtech, Ortenberg, Germany).
(§1) For HTS, the activity of CSR3 was calculated by measuring the change in fluorescence as a function of the reaction time using MARS Data Analysis software (BMG Labtech). To evaluate the CSR3 inhibition efficiency of individual compounds, the PI of each compound was calculated using the slope values for the sample, positive control, and negative control according to the following equation: PI = 100 × [1 − (sample − positive)/(negative − positive)]%. IC50 and DSS values were calculated using concentration-specific PI values according to a previous study ([31]). Relative gene expression was calculated using the classical 2^−ΔΔ^CT method ([63]).

CSR3 [2] = target: T1, CSR3 (Sweet potato chlorotic stunt virus, UniProt Q8JJW8); assay: Binding affinity assay using MST; details: for Binding (Yes/No): MST binding call; for Binding (Yes/No) / Response Amplitude / pKd: Table S4; for Response Amplitude: MST response amplitude; for Comments: MST behaviour of compound (V-shape response, fluorescence quenching, interference, aggregator); for pKd: MST binding affinity to CSR3
T1 sequence (Q8JJW8 1-228): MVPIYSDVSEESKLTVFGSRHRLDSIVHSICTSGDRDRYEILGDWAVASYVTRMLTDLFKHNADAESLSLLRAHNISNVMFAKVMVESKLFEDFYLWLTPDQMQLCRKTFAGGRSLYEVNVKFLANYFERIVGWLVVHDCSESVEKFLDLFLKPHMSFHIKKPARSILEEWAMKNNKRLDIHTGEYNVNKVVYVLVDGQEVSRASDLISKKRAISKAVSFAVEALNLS
Procedure: (§2) Binding affinity assays were first carried out with the 99 commercial compounds using the MST method.
The labeled-protein solution containing 500 nM proteins and 40 nM dye was prepared in PBS buffer with 2% dimethyl sulfoxide (DMSO) for the assay. The 12 concentrations for each compound were obtained by 2-fold serial dilutions (0.2 μM to 400 μM). […] Two independent experiments were carried out in premium coated capillaries (NanoTemper, Munich, Germany) using a Monolith NT.Automated instrument (NanoTemper) with the power set at high (80%), the light-emitting diode (LED) power (pico red) set at 5%, and the on-time set at 20 s. The dissociation constant (Kd) was determined using the MO.Affinity Analysis program (NanoTemper).

CSR3 [3] = target: T1, CSR3; assay: Binding affinity assay using SPR; details: SPR dose-response 3 μM to 200 μM, 25°C, numbers match M (cf. Fig 5A)
Procedure: as §2
CSR3 was purified as described above and stored in PBS buffer. SPR was performed on a BiacoreT100 instrument (GE Healthcare) using a sensor S CM5 chip (GE Healthcare). CSR3 (10 ng/μl) was immobilized using the standard amine-coupling method according to the manufacturer’s instructions with immobilization buffer (10 mM sodium acetate [pH 4]); the final response unit (RU) value was 11,459. Compounds at a single concentration (100 μM) or consisting of 2-fold serial dilutions (3 μM to 200 μM) were flowed over the sensor surface using PBS buffer with 0.01 M HEPES, 0.05% surfactant P20, and 2% DMSO. […] To eliminate bulk interference by DMSO, a solvent correction consisting of DMSO at concentrations ranging from 1.5% to 2.8% was carried out for every 30 samples. Steady-state affinity (KD) values were determined using BiacoreT100 Evaluation software, v.2.04 (GE Healthcare).

SPFMV = assay: Virus accumulation (RT-qPCR of coat protein RNA) in coinfected sweetpotato plants grown in culture medium: SPFMV; type: in vivo, Sweet potato feathery mottle virus; details: for SPFMV_FC (fold change of viral accumulation): 50 μM in culture medium, 28 days, relative to DMSO control
Procedure: (§3) Since tests in culture medium consume smaller amounts of compounds and can be carried out under relatively controlled conditions, sweetpotato plants coinfected with SPCSV and SPFMV were grown in medium supplemented with one of the 30 inhibitor candidates at a concentration of 50 μM. Their effects on plant growth were monitored by imaging the plants once a week. […] In addition, virus accumulation was quantified by measuring the relative abundance of the transcripts encoding viral coat proteins using RT-qPCR ([32]). The effect of individual compounds on virus accumulation was estimated by comparing treated and control plants.
(§4) Sweetpotato plants cultivar 'Huachano' (accession CIP420065) were side-graft inoculated with both SPFMV (East African strain isolate Nam1) and SPCSV-Ug (East African serotype 2) as described previously ([62]). Plantlets were propagated by taking single-node stems grown in a plant culture medium ([33]). Next, plantlets with newly formed roots were transferred to glass tubes (18 by 150 mm) containing 10 ml of medium supplemented with either 50 μM compound (diluted in DMSO; final DMSO concentration, 0.1%) or only 0.1% DMSO as a control. For plant experiments in soil, plantlets were transferred to pots (6 by 6 by 10 cm) filled with a mixture of sand, humus, and washed soil. After 1 week, plants were treated by foliar spraying using either individual compounds at a single concentration (10 μM) (treatment) or water (control/mock) twice a week for 1 month. All plants were grown at 22°C with 60% humidity and a 16-h light/8-h dark photoperiod for 28 days in culture medium and for 41 days in soil. The Finnish National Plant Phenotyping Infrastructure (NaPPI) was used to monitor plant viral disease symptoms as described in our previous study ([33]). Four compounds were tested with the phenotyping platform in two independent batches, each of which included five biological replicates.
(§5) Leaf samples were collected from plants grown in culture medium or soil for 28 or 41 days, respectively, and frozen in liquid nitrogen. Total RNA was extracted using the Spectrum plant total RNA kit (Sigma-Aldrich). First-strand cDNA was synthesized using the Transcriptor first-strand cDNA synthesis kit (Roche, Basel, Switzerland). […] All RT-qPCR experiments were conducted in triplicate on three and five biological replicates from plants grown in culture medium and soil, respectively. The primer list can be found in our previous study ([33]).
as §1

SPCSV = assay: Virus accumulation (RT-qPCR of coat protein RNA) in coinfected sweetpotato plants grown in culture medium: SPCSV; type: in vivo, Sweet potato chlorotic stunt virus; details: for SPCSV_FC (fold change of viral accumulation): 50 μM in culture medium, 28 days, relative to DMSO control
Procedure: as §3, §4, §5, §1

sweetpotato plants = details: 50 μM in culture medium
[4] = system: human enzymes or bacterial proteins; parameters: method as in earlier work; details: ref PubChem https://pubchem.ncbi.nlm.nih.gov/compound/7114450#section=Biological-Test-Results; cited from earlier work
[5] = repeat Comm 1 (commercial compounds), numbers match nM, read-out: IC50 Comm 1
[6] = repeat FIMM 2 (FIMM library compounds), numbers match nM, read-out: IC50 FIMM 2
[7] = read-out: IC50 Comm 1, repeat Comm 1 (commercial compounds), numbers match nM
[8] = plants in culture medium, 50 μM
[9] = repeat FIMM 1 (FIMM library compounds), numbers match nM (cf. Fig 5A), read-out: IC50 FIMM1

Structure (SMILES) | DSS Comm 1 [1] | DSS FIMM1 [1] | DSS FIMM 2 [1] | IC50 [1, 5] | Binding (Yes/No) (CSR3 [2]) | Response Amplitude (CSR3 [2]) | IC50 [1, 6] | DSS [1] | pIC50 [1] | IC50 [1, 7] | SPFMV_FC (fold change of viral accumulation) (SPFMV) | SPFMV accumulation reduced (SPFMV; [8]) | SPCSV_FC (fold change of viral accumulation) (SPCSV) | SPCSV accumulation reduced (SPCSV; [8]) | Toxicity (sweetpotato plants) | Comments (CSR3 [2]) | IC50 [1, 9] | further results
CC(C)(C)C1CCc2c(sc(NC(=O)C3CC=CCC3C(=O)O)c2C(N)=O)C1 (stereo not drawn) [FIMM104970] | 2.4 | 0 | 2.1 | 3620 nM | No | 2.23 | – | – | – | – | – | – | – | – | – | – | – | –
CN1C(=O)C(=CNc2ccc(F)cc2)C(=O)N(C)C1=O [FIMM059523] | – | 0 | 2.3 | – | – | – | 21000 nM | – | – | – | – | – | – | – | – | – | – | –
O=C(O)c1ccc2c(c1)C1C=CCC1C(c1ccc(F)cc1)N2 (stereo not drawn) [FIMM051696] | 11.1 | 12.4 | 10.8 | – | No | 0.517 | – | 12.4 | ~5.55 | 3610 nM | 0.3032 | ~4 fold | 0.2923 | ~4 fold | no | – | – | IC50 ([1]; read-out: IC50 FIMM1, repeat FIMM 1 (FIMM library compounds), numbers match nM (cf. Fig 5A)): 2820 nM; IC50 ([1]; read-out: IC50 FIMM 2, repeat FIMM 2 (FIMM library compounds), numbers match nM): 4000 nM; pKd (CSR3 [3]; unit inferred, read-out: Steady State Affinity): 5.44; viral titer SPFMV (log2 fold change relative to controls) (SPFMV; [8]): −1.72; viral titer SPCSV (log2 fold change relative to controls) (SPCSV; [8]): −1.77; activity in inhibitor screens for human enzymes or bacterial proteins [4]: inactive
CN1CCc2cccc3c2[C@H]1Cc1ccc(O)c(O)c1-3 [FIMM000096, reference compound] | 12.7 | 12.7 | 12.8 | – | Yes | 11808 | 2880 nM | 12.7 | ~5.53 | 2950 nM | – | ~2 fold | – | ~4 fold | – | Fluorescence quenching | – | pKd (CSR3 [2]): 6.16
CCn1c(S)nnc1CCNC(=O)c1cccs1 [FIMM099662] | 6 | 11.7 | 10.2 | 11400 nM | Yes | 21 | 3810 nM | – | – | – | 0.9387 | – | 0.5483 | – | no | – | 3070 nM | pKd (CSR3 [2]; read-out: Kd): 5.75
O=S(=O)(O)c1cccc2cc(O)ccc12 [FIMM072577] | 20.7 | 18.3 | 22.1 | 391 nM | No | 0 | 295 nM | – | – | – | 1.005 | – | 0.7975 | – | no | Interference | 699 nM | Steady State Affinity (CSR3 [3]; unit not given): non binder
